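Where inhibition never reached the appropriate level, the endpoint shown equals the highest concentration tested. Otherwise, values were interpolated linearly from a five-concentration, 48-hour dose response in 96-well plates. GI50 = concentration required for 50% inhibition of growth. TGI: concentration producing complete growth inhibition.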
What was measured:
Test in all cases: NCI anticancer screen, dose series, 48 h
[1] = test system: SK-MEL-2 melanoma
[2] = test system: SK-MEL-28 melanoma
[3] = test system: OVCAR-5 ovarian
[4] = test system: HCT-116 colon
[5] = test system: HCC-2998 colon
[6] = test system: SF-539 CNS
[7] = test system: OVCAR-3 ovarian
[8] = test system: HOP-92 NSCLC
[9] = test system: CAKI-1 renal
[10] = test system: SR leukemia

| SMILES | GI50 [1] [µM] | TGI [1] [µM] | GI50 [2] [µM] | TGI [2] [µM] | GI50 [3] [µM] | TGI [3] [µM] | GI50 [4] [µM] | TGI [4] [µM] | GI50 [5] [µM] | TGI [5] [µM] | GI50 [6] [µM] | TGI [6] [µM] | GI50 [7] [µM] | TGI [7] [µM] | GI50 [8] [µM] | TGI [8] [µM] | GI50 [9] [µM] | TGI [9] [µM] | TGI [10] [µM] | GI50 [10] [µM] |
| --- | --- | --- | --- | --- | --- | --- | --- | --- | --- | --- | --- | --- | --- | --- | --- | --- | --- | --- | --- | --- |
| [Cl-].[Dy+3].[O-]/N=C(\c1ccccc1)c1ccccn1.[O-]/N=C(\c1ccccc1)c1ccccn1.[O-]/N=C(\c1ccccc1)c1ccccn1 | 27.3 | 64.8 | 27.6 | 90.8 | 42.4 | > 100 | 49.8 | > 100 | 27.6 | 88.8 | 25.5 | 64.3 | 24.4 | 92.6 | 41.4 | > 100 | 31 | > 100 | – | – |
| O=C1C2c3[nH]c4ccccc4c3C3CCCCCCC3C2C(=O)N1c1ccccc1 (stereo unspecified) | – | – | – | 43.7 | – | – | – | – | – | > 100 | – | 30.5 | – | 17.2 | – | – | – | – | 48.4 | – |
| CC(C)(C)C1C=C(Sc2ccccc2)C(=O)O1 (stereo unspecified) | – | > 100 | – | > 100 | – | > 100 | – | > 100 | – | > 100 | – | > 100 | – | > 100 | – | 75.2 | – | > 100 | – | – |
| COC(=O)/C(=N/NC(=O)C[N+](C)(C)C)C(C(=O)OC)C(=O)C(=O)Nc1ccc(F)cc1 (stereo unspecified) | – | > 100 | – | > 100 | – | > 100 | – | > 100 | – | > 100 | – | > 100 | – | > 100 | – | – | – | > 100 | > 100 | – |
| COc1ccc(NC2=CC(=O)C(=O)c3ccccc32)nn1 | – | 4.32 | – | 2.3 | – | 3.45 | – | – | – | 21.2 | – | 2.2 | – | 5.94 | – | – | – | 6.24 | – | – |
| C/C(CC(=O)Nc1ccc(C)cc1C)=N/N=C(N)N | – | > 100 | – | > 100 | – | > 100 | – | > 100 | – | > 100 | – | > 100 | – | > 100 | – | > 100 | – | – | – | – |
| COC(=O)c1c/c(=N\NC(=O)CC(=O)Nc2ccccc2OC)c2ccccc2o1 | – | > 100 | – | > 100 | – | > 100 | – | > 100 | – | > 100 | – | > 100 | – | > 100 | – | – | – | > 100 | > 100 | – |
| Cc1cc2c(cc1C)[n+](=O)c(C(=O)C/C(=N/NC(=O)CC#N)C(=O)Nc1ccccc1C(F)(F)F)c(C)n2[O-] | – | 92.3 | – | > 100 | – | > 100 | – | > 100 | – | > 100 | – | > 100 | – | > 100 | – | – | – | > 100 | – | – |
| Cc1cccc(C)c1NC(=O)C(=O)C1C(=O)NC(=O)NC1=O | – | – | – | > 100 | – | > 100 | – | > 100 | – | > 100 | – | > 100 | – | > 100 | – | > 100 | – | > 100 | > 100 | – |
| CCC(C)c1c(Cl)nc(Cl)nc1Cl (stereo unspecified) | – | > 100 | – | 22.5 | – | 33.2 | – | 17.9 | – | 60.6 | – | 58.8 | – | 14.8 | – | – | – | – | – | – |
| COC(=O)/C=C/c1cc(OC)c(OC)c(OC)c1 | – | > 100 | – | > 100 | – | – | – | > 100 | – | > 100 | – | > 100 | – | > 100 | – | > 100 | – | > 100 | > 100 | – |
| Oc1c(CN2CCC(N3CCCCC3)CC2)cc(Cc2cc(CN3CCC(N4CCCCC4)CC3)c(O)c3ncccc23)c2cccnc12 | 2.21 | 7.04 | 1.24 | 5.77 | 2.74 | 20.3 | 0.725 | 7.17 | 1.19 | 6.15 | – | – | 0.517 | 10.1 | 3.38 | 21 | 0.941 | 10.2 | 3.74 | 0.652 |

Source: PubChem BioAssay (NCI)
